# Test results: ChEMBL document CHEMBL1136440, “Design and synthesis of novel RXR-selective modulators with improved pharmacological profile” (Bioorg Med Chem Lett, 2003)
# pIC50, pKi: −log10 of the molar value. Values joined by “and” are separate entries in the source; they are usually repeats but may differ in a detail not shown here. Equal entries are not always repeated.
# How the values were obtained:
# [1] = Tmax value in IRC mice; assay type: ADME, organism-based; conditions: mouse, in vivo
# [2] = Cmax value in IRC mice; assay type: ADME, organism-based; conditions: mouse, in vivo
# [3] = Area under curve at 0-8 hr in IRC mice after peroral administration; assay type: ADME, organism-based; design: time < 8 hr, route oral; conditions: mouse, in vivo, po
# [4] = target: T1, Retinoic acid receptor RXR-alpha (Homo sapiens, UniProt P19793); assay: In vitro antagonist activity against RXR alpha in CV-1 cells; assay type: functional, cell-based, Cercopithecidae
# T1 sequence (P19793 whole entry): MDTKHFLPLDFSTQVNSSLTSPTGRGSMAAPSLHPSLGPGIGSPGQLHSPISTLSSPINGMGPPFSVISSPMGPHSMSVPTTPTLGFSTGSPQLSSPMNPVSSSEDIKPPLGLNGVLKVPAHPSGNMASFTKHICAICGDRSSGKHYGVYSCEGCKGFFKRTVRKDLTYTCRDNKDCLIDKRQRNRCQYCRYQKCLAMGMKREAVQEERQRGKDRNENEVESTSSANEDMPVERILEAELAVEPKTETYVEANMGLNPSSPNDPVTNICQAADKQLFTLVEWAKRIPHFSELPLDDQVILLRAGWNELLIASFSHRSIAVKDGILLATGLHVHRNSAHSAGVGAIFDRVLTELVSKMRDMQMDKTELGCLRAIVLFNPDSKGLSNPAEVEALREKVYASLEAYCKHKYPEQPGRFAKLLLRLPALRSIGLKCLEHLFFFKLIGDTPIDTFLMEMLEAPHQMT
# [5] = target: T2, Retinoic acid receptor alpha (Homo sapiens) (UniProt P10276); assay: Agonist synergy against RAR alpha was tested along with 3 nM TTNPB; assay type: functional; conditions: Cercopithecidae
# T2 sequence (whole entry): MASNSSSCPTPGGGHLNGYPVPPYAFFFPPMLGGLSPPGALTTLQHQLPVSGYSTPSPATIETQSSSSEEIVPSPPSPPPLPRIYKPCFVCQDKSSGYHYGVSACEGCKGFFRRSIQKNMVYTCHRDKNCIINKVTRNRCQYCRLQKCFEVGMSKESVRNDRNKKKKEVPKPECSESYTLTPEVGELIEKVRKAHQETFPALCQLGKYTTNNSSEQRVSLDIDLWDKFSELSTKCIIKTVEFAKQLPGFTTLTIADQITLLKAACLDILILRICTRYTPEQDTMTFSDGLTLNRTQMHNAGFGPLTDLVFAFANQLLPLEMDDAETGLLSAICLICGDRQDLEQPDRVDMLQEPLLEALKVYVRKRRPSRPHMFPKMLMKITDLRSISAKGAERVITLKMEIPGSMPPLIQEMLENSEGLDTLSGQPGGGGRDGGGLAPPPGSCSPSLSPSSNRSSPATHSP
# [6] = target: T3, Retinoic acid receptor beta (Homo sapiens, UniProt P10826); assay: Binding affinity against RAR beta receptor using [3H]ATRA as radioligand in CV-1 cells; assay type: cell-based, Cercopithecidae
# T3 sequence (P10826 whole entry): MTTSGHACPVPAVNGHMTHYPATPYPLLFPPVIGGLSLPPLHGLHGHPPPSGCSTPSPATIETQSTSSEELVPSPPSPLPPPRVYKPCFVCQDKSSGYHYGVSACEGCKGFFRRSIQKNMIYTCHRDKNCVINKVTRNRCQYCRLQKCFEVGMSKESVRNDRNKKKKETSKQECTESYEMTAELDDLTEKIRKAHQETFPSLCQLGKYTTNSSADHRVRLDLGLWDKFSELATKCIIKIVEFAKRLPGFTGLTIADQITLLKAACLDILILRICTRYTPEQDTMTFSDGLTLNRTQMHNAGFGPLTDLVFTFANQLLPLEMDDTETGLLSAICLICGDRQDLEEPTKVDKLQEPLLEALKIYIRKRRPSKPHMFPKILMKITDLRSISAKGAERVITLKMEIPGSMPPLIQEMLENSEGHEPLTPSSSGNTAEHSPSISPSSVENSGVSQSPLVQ
# [7] = target: T4, Retinoic acid receptor RXR-beta (Homo sapiens, UniProt P28702); assay: Displacement of [3H]9-cis-RA from RXR beta receptor in CV-1 cells; assay type: cell-based, Cercopithecidae
# T4 sequence (P28702 whole entry): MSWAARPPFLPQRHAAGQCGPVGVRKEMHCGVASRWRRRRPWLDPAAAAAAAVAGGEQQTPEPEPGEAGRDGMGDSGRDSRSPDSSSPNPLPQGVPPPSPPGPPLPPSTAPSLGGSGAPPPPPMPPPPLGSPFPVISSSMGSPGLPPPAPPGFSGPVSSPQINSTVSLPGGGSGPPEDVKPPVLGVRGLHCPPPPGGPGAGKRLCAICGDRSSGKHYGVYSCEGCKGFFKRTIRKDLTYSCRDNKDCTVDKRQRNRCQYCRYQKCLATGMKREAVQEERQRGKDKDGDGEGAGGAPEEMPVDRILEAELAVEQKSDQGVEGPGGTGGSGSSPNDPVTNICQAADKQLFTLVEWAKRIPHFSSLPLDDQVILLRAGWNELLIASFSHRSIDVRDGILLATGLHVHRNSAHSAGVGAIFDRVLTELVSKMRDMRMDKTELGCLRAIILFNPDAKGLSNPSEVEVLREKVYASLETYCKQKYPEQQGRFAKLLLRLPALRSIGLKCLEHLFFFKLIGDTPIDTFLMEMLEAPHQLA
# [8] = target: T5, Retinoic acid receptor alpha (Homo sapiens, UniProt P10276); assay: Binding affinity against RAR alpha receptor using [3H]ATRA as radioligand in CV-1 cells; assay type: cell-based, Cercopithecidae
# T5 sequence (P10276 whole entry): T2 sequence (whole entry)
# [9] = target: T6, Retinoic acid receptor gamma (Homo sapiens, UniProt P13631); assay: Binding affinity against RAR gamma receptor using [3H]ATRA as radioligand in CV-1 cells; assay type: cell-based, Cercopithecidae
# T6 sequence (P13631 whole entry): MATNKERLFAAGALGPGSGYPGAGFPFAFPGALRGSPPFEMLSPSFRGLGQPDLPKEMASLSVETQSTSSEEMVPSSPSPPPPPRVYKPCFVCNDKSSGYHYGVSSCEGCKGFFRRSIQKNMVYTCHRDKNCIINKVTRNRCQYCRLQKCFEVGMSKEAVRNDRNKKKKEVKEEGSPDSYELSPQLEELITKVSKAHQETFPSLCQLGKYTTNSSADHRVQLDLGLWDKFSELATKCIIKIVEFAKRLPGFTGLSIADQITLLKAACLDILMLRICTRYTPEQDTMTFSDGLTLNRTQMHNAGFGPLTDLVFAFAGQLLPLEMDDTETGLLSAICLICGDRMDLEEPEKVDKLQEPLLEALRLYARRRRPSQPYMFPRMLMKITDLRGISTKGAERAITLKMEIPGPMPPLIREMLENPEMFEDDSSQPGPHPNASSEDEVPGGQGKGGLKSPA
# [10] = target: T1, Retinoic acid receptor RXR-alpha; assay: biochemical
# Description: Binding affinity against RXR alpha receptor using [3H]9-cis-RA as radioligand in CV-1 cells
SMILES,Tmax [1],Cmax [2],AUC(0-t) at 8 h [3],pIC50 [4],Synergy [5],pKi [6],pKi [7],pKi [8],pKi [9],pKi [10]
C/C(=C/C=C/C(C)=C/C(=O)O)c1cc(-c2ccccc2F)cc(C(C)C)c1OCC(F)F,1 h,4140 ng/mL and 9.31 µM,15200 ng·h/mL,8.51,1.5 nM,5.41,7.80,5.17,5.06,8.64
CCOc1c(\C(C)=C/C=C/C(C)=C/C(=O)O)cc(C(F)(F)C(F)(F)F)cc1C(C)C,1 h,4430 ng/mL and 10.2 µM,14400 ng·h/mL,8.28,2.8 nM,< 5.00,8.07,< 5.00,< 5.00,8.20
